According to PMC5218480 (PLoS ONE, 2017):

System: MV-4-11 cells
Test: Gene expression microarray analysis (Affymetrix PrimeView) and GSEA
Format: cell-based, human
Set-up: RFU PODN (11730768_x_at) / Fold change /veh PODN (11730768_x_at) / RFU LINC00158 (11744669_a_at) / Fold change /veh LINC00158 (11744669_a_at) / RFU DUSP10 (11751237_a_at) / Fold change /veh DUSP10 (11751237_a_at) / RFU ID3 (11757404_x_at) / Fold change /veh ID3 (11757404_x_at) / RFU PLEKHG5 (11737974_s_at) / Fold change /veh PLEKHG5 (11737974_s_at) / RFU LRRC4B (11730491_at) / Fold change /veh LRRC4B (11730491_at) / RFU GIMAP4 (11747438_a_at) / Fold change /veh GIMAP4 (11747438_a_at) / RFU KRT8 (11758183_x_at) / Fold change /veh KRT8 (11758183_x_at) / RFU CNN1 (11734310_a_at) / Fold change /veh CNN1 (11734310_a_at) / RFU VPS37D (11726825_at) / Fold change /veh VPS37D (11726825_at) / RFU C10orf10 (11716522_x_at) / Fold change /veh C10orf10 (11716522_x_at) / RFU KIR2DL2 /// KIR2DL4 /// KIR2DL5A /// KIR2DL5B /// KIR2DS1 /// KIR2DS2 /// KIR2DS3 /// KIR2DS4 /// KIR3DL3 /// KIR3DL3 /// KIR3DS1 (11738374_at) / Fold change /veh KIR2DL2 /// KIR2DL4 /// KIR2DL5A /// KIR2DL5B /// KIR2DS1 /// KIR2DS2 /// KIR2DS3 /// KIR2DS4 /// KIR3DL3 /// KIR3DL3 /// KIR3DS1 (11738374_at) / RFU C1QL1 (11718748_at) / Fold change /veh C1QL1 (11718748_at) / RFU TMPRSS4 (11747572_a_at) / Fold change /veh TMPRSS4 (11747572_a_at) / RFU HAMP (11756126_x_at) / Fold change /veh HAMP (11756126_x_at) / RFU RNFT2 (11725882_a_at) / Fold change /veh RNFT2 (11725882_a_at) / RFU NR4A2 (11747474_a_at) / Fold change /veh NR4A2 (11747474_a_at) / RFU ABCC12 (11746883_a_at) / Fold change /veh ABCC12 (11746883_a_at) / RFU TMEM136 (11760407_x_at) / Fold change /veh TMEM136 (11760407_x_at) / RFU CLDN22 /// WWC2 (11732394_at) / Fold change /veh CLDN22 /// WWC2 (11732394_at) / RFU HLA-DPB1 (11760878_x_at) / Fold change /veh HLA-DPB1 (11760878_x_at) / RFU SPINT1 (11716480_a_at) / Fold change /veh SPINT1 (11716480_a_at) / RFU GAP43 (11754022_s_at) / Fold change /veh GAP43 (11754022_s_at) / RFU A4GNT (11735810_at) / Fold change /veh A4GNT (11735810_at) / RFU PRB3 (11715151_x_at) / Fold change /veh PRB3 (11715151_x_at) / RFU TUBB4B (11761932_at) / Fold change /veh TUBB4B (11761932_at) / RFU CAPN14 (11732068_a_at) / Fold change /veh CAPN14 (11732068_a_at) / RFU TMCC2 (11721928_a_at) / Fold change /veh TMCC2 (11721928_a_at) / RFU IRGQ (11745062_a_at) / Fold change /veh IRGQ (11745062_a_at) / RFU FAM174B (11720279_a_at) / Fold change /veh FAM174B (11720279_a_at) / RFU TMPRSS4 (11748680_a_at) / Fold change /veh TMPRSS4 (11748680_a_at) / RFU FAM212B (11763350_a_at) / Fold change /veh FAM212B (11763350_a_at) / RFU PLEKHG5 (11743358_a_at) / Fold change /veh PLEKHG5 (11743358_a_at) / RFU ZSCAN30 (11745921_a_at) / Fold change /veh ZSCAN30 (11745921_a_at) / RFU CMKLR1 (11741424_a_at) / Fold change /veh CMKLR1 (11741424_a_at) / RFU LOC101060620 /// MAPK8IP1 (11723275_at) / Fold change /veh LOC101060620 /// MAPK8IP1 (11723275_at) / RFU SPTSSB (11747773_x_at) / Fold change /veh SPTSSB (11747773_x_at) / RFU PRSS12 (11739890_at) / Fold change /veh PRSS12 (11739890_at) / RFU BIN1 (11741810_x_at) / Fold change /veh BIN1 (11741810_x_at) / RFU WNT11 (11732464_a_at) / Fold change /veh WNT11 (11732464_a_at) / RFU C10orf10 (11716521_a_at) / Fold change /veh C10orf10 (11716521_a_at) / RFU C5orf56 (11738089_at) / Fold change /veh C5orf56 (11738089_at) / RFU CYB561 (11721691_x_at) / Fold change /veh CYB561 (11721691_x_at) / RFU ANKRD19P (11752326_a_at) / Fold change /veh ANKRD19P (11752326_a_at) / RFU OR2T12 /// OR2T33 /// OR2T8 (11738714_s_at) / Fold change /veh OR2T12 /// OR2T33 /// OR2T8 (11738714_s_at) / RFU VCAN (11748164_a_at) / Fold change /veh VCAN (11748164_a_at) / RFU JSRP1 (11732532_at) / Fold change /veh JSRP1 (11732532_at) / RFU KRTAP10-11 (11738290_x_at) / Fold change /veh KRTAP10-11 (11738290_x_at) / RFU MYO3A (11730013_a_at) / Fold change /veh MYO3A (11730013_a_at) / RFU EBF3 (11725865_a_at) / Fold change /veh EBF3 (11725865_a_at) / RFU CAMK2N1 (11719241_x_at) / Fold change /veh CAMK2N1 (11719241_x_at) / RFU C5orf56 (11738088_a_at) / Fold change /veh C5orf56 (11738088_a_at) / RFU OLFML3 (11715873_a_at) / Fold change /veh OLFML3 (11715873_a_at) / RFU LOC100653217 /// NTM (11731650_a_at) / Fold change /veh LOC100653217 /// NTM (11731650_a_at) / RFU MAPK11 (11762145_a_at) / Fold change /veh MAPK11 (11762145_a_at) / RFU FIZ1 (11724087_x_at) / Fold change /veh FIZ1 (11724087_x_at) / RFU OASL (11726364_x_at) / Fold change /veh OASL (11726364_x_at) / RFU SOX15 (11748057_x_at) / Fold change /veh SOX15 (11748057_x_at) / RFU CD79A (11719716_a_at) / Fold change /veh CD79A (11719716_a_at) / RFU HIST1H1D (11736915_at) / Fold change /veh HIST1H1D (11736915_at) / RFU CASKIN2 (11723855_a_at) / Fold change /veh CASKIN2 (11723855_a_at) / RFU LOC730098 (11760151_x_at) / Fold change /veh LOC730098 (11760151_x_at) / RFU OR4N2 (11742367_at) / Fold change /veh OR4N2 (11742367_at) / RFU PRRT2 (11749266_a_at) / Fold change /veh PRRT2 (11749266_a_at) / RFU SNX32 (11753110_a_at) / Fold change /veh SNX32 (11753110_a_at) / RFU CDHR5 (11726645_a_at) / Fold change /veh CDHR5 (11726645_a_at) / RFU RCAN1 (11760418_a_at) / Fold change /veh RCAN1 (11760418_a_at) / RFU FAM167A (11723789_a_at) / Fold change /veh FAM167A (11723789_a_at) / RFU FAM26E (11764081_at) / Fold change /veh FAM26E (11764081_at) / RFU ISYNA1 (11749810_s_at) / Fold change /veh ISYNA1 (11749810_s_at) / RFU ACY1 (11761880_at) / Fold change /veh ACY1 (11761880_at) / RFU 11764098_at / Fold change /veh 11764098_at / RFU SAMD14 (11745864_x_at) / Fold change /veh SAMD14 (11745864_x_at) / RFU NPB (11741838_a_at) / Fold change /veh NPB (11741838_a_at) / RFU TMPRSS6 (11731388_a_at) / Fold change /veh TMPRSS6 (11731388_a_at) / RFU KRTAP10-2 (11738614_at) / Fold change /veh KRTAP10-2 (11738614_at) / RFU ARHGAP8 /// PRR5-ARHGAP8 (11727945_x_at) / Fold change /veh ARHGAP8 /// PRR5-ARHGAP8 (11727945_x_at) / RFU KRTAP5-7 /// NADSYN1 (11734609_at) / Fold change /veh KRTAP5-7 /// NADSYN1 (11734609_at) / RFU RASL12 (11751679_a_at) / Fold change /veh RASL12 (11751679_a_at) / RFU CDKN2B (11736163_a_at) / Fold change /veh CDKN2B (11736163_a_at) / RFU PRF1 (11729649_at) / Fold change /veh PRF1 (11729649_at) / RFU, ZNF638 /// ZNF638-IT1 / Fold change vs veh, ZNF638 /// ZNF638-IT1 / RFU, PANK3 / Fold change vs veh, PANK3 / RFU, SH3YL1 / Fold change vs veh, SH3YL1 / RFU, ZEB2 / Fold change vs veh, ZEB2 / RFU, NRIP1 / Fold change vs veh, NRIP1 / RFU, PTTG1IP / Fold change vs veh, PTTG1IP / RFU, CAPN2 / Fold change vs veh, CAPN2 / RFU, MED14 / Fold change vs veh, MED14 / RFU, SNORA58 / Fold change vs veh, SNORA58 / RFU, C1orf63 / Fold change vs veh, C1orf63 / RFU, LRRFIP1 / Fold change vs veh, LRRFIP1 / RFU, NDUFAF7 / Fold change vs veh, NDUFAF7 / RFU, SLC12A2 / Fold change vs veh, SLC12A2 / RFU, IBTK / Fold change vs veh, IBTK / RFU, ESF1 / Fold change vs veh, ESF1 / Fold change vs veh, TMEM50B / RFU, TAOK1 / Fold change vs veh, TAOK1 / RFU, ACBD3 / Fold change vs veh, ACBD3 / RFU, TMA16 / Fold change vs veh, TMA16 / RFU, RWDD3 / Fold change vs veh, RWDD3 / RFU, BCAT1 / Fold change vs veh, BCAT1 / RFU, EDEM3 / Fold change vs veh, EDEM3 / RFU, TMEM33 / Fold change vs veh, TMEM33 / RFU, WDR75 / Fold change vs veh, WDR75 / RFU, AHCTF1 / Fold change vs veh, AHCTF1 / RFU, TFRC / Fold change vs veh, TFRC / RFU, ZDHHC17 / Fold change vs veh, ZDHHC17 / RFU, NOM1 / Fold change vs veh, NOM1 / RFU, ARL8B / Fold change vs veh, ARL8B / RFU, ZBTB11 / Fold change vs veh, ZBTB11 / RFU, TAMM41 / Fold change vs veh, TAMM41 / RFU, KIAA1704 /// LOC100996395 / Fold change vs veh, KIAA1704 /// LOC100996395 / RFU, ING1 / Fold change vs veh, ING1 / RFU, TRMT61B / Fold change vs veh, TRMT61B / RFU, FUBP3 / Fold change vs veh, FUBP3 / RFU, TP53 / Fold change vs veh, TP53 / RFU, TNKS2 / Fold change vs veh, TNKS2 / RFU, ZFP14 / Fold change vs veh, ZFP14 / RFU, ACTR2 / Fold change vs veh, ACTR2 / RFU, PPP3R1 / Fold change vs veh, PPP3R1 / RFU, PIK3R1 / Fold change vs veh, PIK3R1 / RFU, HNRNPA1 / Fold change vs veh, HNRNPA1 / RFU, RNF170 / Fold change vs veh, RNF170 / RFU, ZNF28 / Fold change vs veh, ZNF28 / RFU, RNGTT / Fold change vs veh, RNGTT / RFU, OGT / Fold change vs veh, OGT / RFU, BRD1 / Fold change vs veh, BRD1 / RFU, MARS / Fold change vs veh, MARS / RFU, ZNF655 / Fold change vs veh, ZNF655 / RFU, FAHD1 / Fold change vs veh, FAHD1 / RFU, BDP1 / Fold change vs veh, BDP1 / RFU, LRRCC1 / Fold change vs veh, LRRCC1 / RFU, ARID1A / Fold change vs veh, ARID1A / RFU, ZNF146 / Fold change vs veh, ZNF146 / RFU, ZNF330 / Fold change vs veh, ZNF330 / RFU, GPN3 / Fold change vs veh, GPN3 / RFU, C9orf123 / Fold change vs veh, C9orf123 / RFU, N4BP2L2 / Fold change vs veh, N4BP2L2 / RFU, ARFIP1 / Fold change vs veh, ARFIP1 / RFU, FAM179B / Fold change vs veh, FAM179B / RFU, BCL10 / Fold change vs veh, BCL10 / RFU, UHRF1BP1L / Fold change vs veh, UHRF1BP1L / RFU, BET1 / Fold change vs veh, BET1 / RFU, CNOT2 / Fold change vs veh, CNOT2 / RFU, ZNF268 / Fold change vs veh, ZNF268 / Fold change vs veh, ZNF507 / RFU, DGCR2 / Fold change vs veh, DGCR2 / RFU, WDSUB1 / Fold change vs veh, WDSUB1 / Fold change vs veh, HSP90B1 /// MIR3652 / RFU, ADSS / Fold change vs veh, ADSS / RFU, GK / Fold change vs veh, GK / RFU, ZNF148 / Fold change vs veh, ZNF148 / RFU, TAF9 / Fold change vs veh, TAF9 / RFU, SLC1A5 / Fold change vs veh, SLC1A5 / RFU, SLMO2 / Fold change vs veh, SLMO2 / RFU, ABCC4 / Fold change vs veh, ABCC4 / RFU, LOC101060439 /// RAP1B / Fold change vs veh, LOC101060439 /// RAP1B / RFU, RFX7 / Fold change vs veh, RFX7 / RFU, GTPBP10 / Fold change vs veh, GTPBP10 / RFU, CNEP1R1 / Fold change vs veh, CNEP1R1 / RFU, BIVM-ERCC5 /// ERCC5 / Fold change vs veh, BIVM-ERCC5 /// ERCC5 / RFU, ILF3 / Fold change vs veh, ILF3 / RFU 11762660_at / Fold change /veh 11762660_at / RFU VCAN (11757783_s_at) / Fold change /veh VCAN (11757783_s_at) / RFU DDX43 (11728927_at) / Fold change /veh DDX43 (11728927_at) / RFU KRT8 (11758188_x_at) / Fold change /veh KRT8 (11758188_x_at) / RFU NKD1 (11759106_at) / Fold change /veh NKD1 (11759106_at) / RFU SRD5A1 (11742802_a_at) / Fold change /veh SRD5A1 (11742802_a_at) / RFU TPSAB1 /// TPSB2 (11721975_s_at) / Fold change /veh TPSAB1 /// TPSB2 (11721975_s_at) / RFU GSTM3 (11746129_a_at) / Fold change /veh GSTM3 (11746129_a_at) / RFU IL23R (11737362_x_at) / Fold change /veh IL23R (11737362_x_at) / RFU TMEM51 (11727254_a_at) / Fold change /veh TMEM51 (11727254_a_at) / RFU PIWIL2 (11732686_x_at) / Fold change /veh PIWIL2 (11732686_x_at) / RFU ORM1 (11744905_x_at) / Fold change /veh ORM1 (11744905_x_at) / RFU CCDC152 (11743942_at) / Fold change /veh CCDC152 (11743942_at) / RFU ECM1 (11717891_a_at) / Fold change /veh ECM1 (11717891_a_at) / RFU IL23R (11748794_a_at) / Fold change /veh IL23R (11748794_a_at) / RFU TNFAIP8L3 (11732012_x_at) / Fold change /veh TNFAIP8L3 (11732012_x_at) / RFU MBOAT4 (11741988_at) / Fold change /veh MBOAT4 (11741988_at) / RFU 11764193_at / Fold change /veh 11764193_at / RFU TMEM53 (11763286_at) / Fold change /veh TMEM53 (11763286_at) / RFU MAGEB2 (11727129_at) / Fold change /veh MAGEB2 (11727129_at) / RFU TMEM200A (11744735_a_at) / Fold change /veh TMEM200A (11744735_a_at) / RFU CCDC152 (11751479_a_at) / Fold change /veh CCDC152 (11751479_a_at) / RFU FAM211A (11726209_a_at) / Fold change /veh FAM211A (11726209_a_at) / RFU RGS16 (11746705_a_at) / Fold change /veh RGS16 (11746705_a_at) / RFU VCAN (11755009_s_at) / Fold change /veh VCAN (11755009_s_at) / RFU RHOB (11743442_s_at) / Fold change /veh RHOB (11743442_s_at) / RFU RGS16 (11720943_a_at) / Fold change /veh RGS16 (11720943_a_at) / RFU RGS16 (11720944_at) / Fold change /veh RGS16 (11720944_at) / RFU, VPS4B / Fold change vs veh, VPS4B / RFU, CREB1 / Fold change vs veh, CREB1 / RFU, DNAJC13 / Fold change vs veh, DNAJC13 / RFU, GNAQ / Fold change vs veh, GNAQ / RFU, CDK5R1 / Fold change vs veh, CDK5R1 / RFU, ZRANB3 / Fold change vs veh, ZRANB3 / RFU, CUL4A / Fold change vs veh, CUL4A / RFU, CCNY / Fold change vs veh, CCNY / RFU, UFL1 / Fold change vs veh, UFL1 / RFU, COG3 / Fold change vs veh, COG3 / RFU, DIAPH2 / Fold change vs veh, DIAPH2 / RFU, SKA2 / Fold change vs veh, SKA2 / RFU, AFF3 / Fold change vs veh, AFF3 / RFU, LMF1 / Fold change vs veh, LMF1 / RFU, IPO11 / Fold change vs veh, IPO11 / RFU, DFFB / Fold change vs veh, DFFB / RFU, FOXP1 / Fold change vs veh, FOXP1 / RFU, CARD8 / Fold change vs veh, CARD8 / RFU, STRN3 / Fold change vs veh, STRN3 / RFU, ADK / Fold change vs veh, ADK / RFU, RASSF2 / Fold change vs veh, RASSF2 / RFU, WIPF1 / Fold change vs veh, WIPF1 / RFU, LARP1B / Fold change vs veh, LARP1B / RFU, RASA1 / Fold change vs veh, RASA1 / RFU, RB1 / Fold change vs veh, RB1 / RFU, PPFIA1 / Fold change vs veh, PPFIA1 / RFU, MAT2A / Fold change vs veh, MAT2A / RFU, CCT5 / Fold change vs veh, CCT5 / RFU, WDR92 / Fold change vs veh, WDR92 / RFU, CUX1 / Fold change vs veh, CUX1 / RFU, TTC7A / Fold change vs veh, TTC7A / RFU, TMEM135 / Fold change vs veh, TMEM135 / RFU, DEPTOR / Fold change vs veh, DEPTOR / RFU, CPM / Fold change vs veh, CPM / RFU, DNAJB6 / Fold change vs veh, DNAJB6 / RFU, CACNA2D3 / Fold change vs veh, CACNA2D3 / RFU, DTX4 / Fold change vs veh, DTX4 / RFU, TFCP2 / Fold change vs veh, TFCP2 / RFU, GMCL1 /// GMCL1P1 / Fold change vs veh, GMCL1 /// GMCL1P1 / RFU, AEBP2 / Fold change vs veh, AEBP2 / RFU, SNHG1 /// SNORD22 /// SNORD25 /// SNORD26 /// SNORD27 /// SNORD28 /// SNORD29 /// SNORD31 / Fold change vs veh, SNHG1 /// SNORD22 /// SNORD25 /// SNORD26 /// SNORD27 /// SNORD28 /// SNORD29 /// SNORD31 / Fold change (Aza/veh), C12orf56 (ProbeSet 11735607_a_at) / Fold change (ACY-1035/veh), C12orf56 (ProbeSet 11735607_a_at) / Fold change (Aza/veh), FGFR1OP (ProbeSet 11751329_s_at) / Fold change (ACY-1035/veh), FGFR1OP (ProbeSet 11751329_s_at) / Fold change (Aza/veh), VPS36 (ProbeSet 11739960_a_at) / Fold change (ACY-1035/veh), VPS36 (ProbeSet 11739960_a_at) / RFU SYPL1 (11715823_x_at) / Fold change /veh SYPL1 (11715823_x_at) / RFU IGFBP7 (11715501_s_at) / Fold change /veh IGFBP7 (11715501_s_at) / RFU REEP3 (11722064_at) / Fold change /veh REEP3 (11722064_at) / RFU IGLL1 (11728026_x_at) / Fold change /veh IGLL1 (11728026_x_at): dose or concentration left out as unconfirmed
Details: ProbeSet 11717876_a_at; LIST D

## Nc1ncn([C@@H]2O[C@H](CO)[C@@H](O)[C@H]2O)c(=O)n1 [azacitidine]
  Fold change vs veh, PPFIA1: 0.68
